The source made the active and inactive calls. No rule for the calls is given here.
Test system: CCRIS mutagenicity, Ames/micronucleus/aberration tests
Assay: CCRIS mutagenicity studies

In the case of Cc1c2ccccc2c(C)c2c1ccc1ccccc12, the mutagenic call (Test System: AMES SALMONELLA TYPHIMURIUM, Strain/Indicator: TA1535, Metabolic Activation: RAT, LIVER, S-9, AROCLOR 1254, Method: SPIRAL ASSAY) is reported as “inactive; negative”, the mutagenic call (Test System: AMES SALMONELLA TYPHIMURIUM, Strain/Indicator: TA1535, Metabolic Activation: RAT, LIVER, S-9, AROCLOR 1254, Method: STANDARD PLATE) is reported as “inactive; negative” and the mutagenic call (Test System: AMES SALMONELLA TYPHIMURIUM, Strain/Indicator: TA1537, Metabolic Activation: NONE, Method: SPIRAL ASSAY) is reported as “active; positive”. For the same molecule, the mutagenic call (Test System: AMES SALMONELLA TYPHIMURIUM, Strain/Indicator: TA1537, Metabolic Activation: NONE, Method: STANDARD PLATE) was “active; positive”, the mutagenic call (Test System: AMES SALMONELLA TYPHIMURIUM, Strain/Indicator: TA1537, Metabolic Activation: RAT, LIVER, S-9, AROCLOR 1254, Method: SPIRAL ASSAY) was “active; positive” and the mutagenic call (Test System: AMES SALMONELLA TYPHIMURIUM, Strain/Indicator: TA1537, Metabolic Activation: RAT, LIVER, S-9, AROCLOR 1254, Method: STANDARD PLATE) was “active; positive”. The mutagenic call (Test System: AMES SALMONELLA TYPHIMURIUM, Strain/Indicator: TA1537, Metabolic Activation: RAT, LIVER, S-9, KC500 OR PHENOBARBITAL, Method: LIQUID SUSPENSION) was “active; positive”, the mutagenic call (Test System: AMES SALMONELLA TYPHIMURIUM, Strain/Indicator: TA1538, Metabolic Activation: RAT, LIVER, S-9, AROCLOR 1254, Method: STANDARD PLATE) was “active; positive” and the mutagenic call (Test System: CHINESE HAMSTER OVARY, Strain/Indicator: CHO-K1-BH4 (HGPRT), Metabolic Activation: RAT, LIVER, S-9, AROCLOR, Method: SUSPENSION/PLATE) was “active; positive”. For the same molecule, the mutagenic call (Test System: CHINESE HAMSTER V-79, Strain/Indicator: V-79/6-THIOGUANINE, Metabolic Activation: NONE, Method: STANDARD PLATE) was “inactive; negative”, the mutagenic call (Test System: CHINESE HAMSTER V-79, Strain/Indicator: V-79/6-THIOGUANINE, Metabolic Activation: RAT, HEPATOCYTES, BUTYLATED HYDROXYANISOLE, Method: STANDARD PLATE) was “active; positive” and the mutagenic call (Test System: CHINESE HAMSTER V-79, Strain/Indicator: V-79/6-THIOGUANINE, Metabolic Activation: RAT, HEPATOCYTES, Method: STANDARD PLATE) was “active; positive”. The mutagenic call (Test System: CHINESE HAMSTER V-79, Strain/Indicator: V-79/6-THIOGUANINE, Metabolic Activation: RAT, LIVER, S-9, PHENOBARBITAL, Method: STANDARD PLATE) was “active; positive”, the mutagenic call (Test System: CHINESE HAMSTER V-79, Strain/Indicator: V-79/8-AZAGUANINE, Metabolic Activation: CELL-MEDIATED, Method: STANDARD PLATE) was “active; positive” and the mutagenic call (Test System: CHINESE HAMSTER V-79, Strain/Indicator: V-79/OUABAIN, Metabolic Activation: NONE, Method: STANDARD PLATE) was “inactive; negative”. The mutagenic call (Test System: CHINESE HAMSTER V-79, Strain/Indicator: V-79/OUABAIN, Metabolic Activation: RAT, HEPATOCYTES, BUTYLATED HYDROXYANISOLE, Method: STANDARD PLATE) was “active; positive”, the mutagenic call (Test System: CHINESE HAMSTER V-79, Strain/Indicator: V-79/OUABAIN, Metabolic Activation: RAT, HEPATOCYTES, Method: STANDARD PLATE) was “active; positive” and the mutagenic call (Test System: E. COLI, Strain/Indicator: WP2 UVRA, Metabolic Activation: HAMSTER, LIVER, S-9, AROCLOR 1254, Method: STANDARD PLATE) was “inactive; negative”. For the same molecule, the mutagenic call (Test System: E. COLI, Strain/Indicator: WP2 UVRA, Metabolic Activation: HAMSTER, LIVER, S-9, Method: STANDARD PLATE) was “inactive; negative”, the mutagenic call (Test System: E. COLI, Strain/Indicator: WP2 UVRA, Metabolic Activation: MOUSE, LIVER, S-9, AROCLOR 1254, Method: STANDARD PLATE) was “inactive; negative” and the mutagenic call (Test System: E. COLI, Strain/Indicator: WP2 UVRA, Metabolic Activation: MOUSE, LIVER, S-9, Method: STANDARD PLATE) was “inactive; negative”. The mutagenic call (Test System: E. COLI, Strain/Indicator: WP2 UVRA, Metabolic Activation: NONE, Method: STANDARD PLATE) was “inactive; negative”, the mutagenic call (Test System: E. COLI, Strain/Indicator: WP2 UVRA, Metabolic Activation: RAT, LIVER, S-9, AROCLOR 1254, Method: STANDARD PLATE) was “inactive; negative” and the mutagenic call (Test System: E. COLI, Strain/Indicator: WP2 UVRA, Metabolic Activation: RAT, LIVER, S-9, Method: STANDARD PLATE) was “inactive; negative”. For the same molecule, the mutagenic call (Test System: MOUSE LYMPHOMA, Strain/Indicator: L5178Y (TK+/TK-), Metabolic Activation: NONE, Method: SUSPENSION/PLATE) was “inactive; negative”, the mutagenic call (Test System: MOUSE LYMPHOMA, Strain/Indicator: L5178Y (TK+/TK-), Metabolic Activation: RAT, LIVER, S-9, AROCLOR 1254, Method: SUSPENSION/PLATE) was “active; positive” and the mutagenic call (Test System: MOUSE SPLENIC LYMPHOCYTES, Strain/Indicator: C57BL/6 (TK+/-)/C57BL/6 (HPRT), Metabolic Activation: NONE, Method: IN VIVO/SUSPENSION/PLATE) was “active; positive”. The mutagenic call (Test System: UDS MONKEY HEPATOCYTES, Strain/Indicator: THY INCORP, Metabolic Activation: AROCLOR 1254, Method: AUTORADIOGRAPHY) was “active; positive”, the mutagenic call (Test System: UDS MONKEY HEPATOCYTES, Strain/Indicator: THY INCORP, Metabolic Activation: NONE, Method: AUTORADIOGRAPHY) was “active; positive” and the mutagenic call (Test System: UDS MOUSE EPIDERMIS IN VIVO/IN VITRO, Strain/Indicator: HOS:HR-1/THYMIDINE INCORPORATION, Metabolic Activation: NONE, Method: LIQUID SCINTILLATION) was “active; positive”. For the same molecule, the mutagenic call (Test System: UDS RAT HEPATOCYTES, Strain/Indicator: BROMODEOXYURIDINE INCORP, Metabolic Activation: NONE, Method: FLOW CYTOMETRIC ANALYSIS) was “active; positive”, the mutagenic call (Test System: UDS RAT HEPATOCYTES, Strain/Indicator: THY INCORP, Metabolic Activation: NONE, Method: AUTORADIOGRAPHY) was “active; positive” and the mutagenic call (Test System: UDS RODENT HEPATOCYTES, Strain/Indicator: THY INCORP (NON-S-PHASE), Method: AUTORADIOGRAPHY) was “active; positive”. The mutagenic call (Test System: UDS RODENT PRIMARY CELLS, Strain/Indicator: THY INCORP (NON-S-PHASE), Metabolic Activation: NONE, Method: AUTORADIOGRAPHY) was “active; positive”.

Source: PubChem BioAssay AID1259407 (Chemical Carcinogenesis Research Information System (CCRIS), 2018)
